Values quoted from earlier work in US20060057232A1, “Method of altering age perception” (priority 2004, published 2006).

Test system: sensitivity of observers to light
Conditions: (26)

c1ccncc1 [pyridine]
effect on sensitivity of observers to light: increase sensitivity of observers to light
